Data: ChEMBL document CHEMBL4619777, “A New Class of Dengue and West Nile Virus Protease Inhibitors with Submicromolar Activity in Reporter Gene DENV-2 Protease and Viral Replication Assays” (J Med Chem, 2020)
Calls of active or inactive are those of the source. Unless noted, the rule behind the calls is not given here.

How the values were obtained:
Genome polyprotein [1] = biological target: T1, Genome polyprotein (dengue virus type 2, UniProt P29990); experiment: Inhibition of Dengue virus serotype 2 NS2B-NS3 protease transfected in human HeLa cells measured after 24 hrs by Renilla-luciferase reporter gene assay; format: cell-based
Genome polyprotein [2] = biological target: Genome polyprotein (West Nile virus, UniProt P06935); experiment: Inhibition of West Nile virus NS2B-NS3 protease expressed in Escherichia coli BL21 lambda (DE3) cells using Abz-Gly-Leu-Lys-Arg-Gly-Gly-3-(NO2)Tyr as substrate preincubated for 15 mins followed by substrate addition measured for 15 mins by fluorimetric analysis
Sequence of Genome polyprotein (West Nile virus, UniProt P06935) (P06935 1371-1501 limits assumed): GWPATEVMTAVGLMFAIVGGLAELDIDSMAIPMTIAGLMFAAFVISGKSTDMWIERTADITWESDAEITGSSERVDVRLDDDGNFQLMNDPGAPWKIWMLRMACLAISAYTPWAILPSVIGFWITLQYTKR
Sequence of Genome polyprotein (West Nile virus, UniProt P06935) (P06935 1502-2120 limits assumed): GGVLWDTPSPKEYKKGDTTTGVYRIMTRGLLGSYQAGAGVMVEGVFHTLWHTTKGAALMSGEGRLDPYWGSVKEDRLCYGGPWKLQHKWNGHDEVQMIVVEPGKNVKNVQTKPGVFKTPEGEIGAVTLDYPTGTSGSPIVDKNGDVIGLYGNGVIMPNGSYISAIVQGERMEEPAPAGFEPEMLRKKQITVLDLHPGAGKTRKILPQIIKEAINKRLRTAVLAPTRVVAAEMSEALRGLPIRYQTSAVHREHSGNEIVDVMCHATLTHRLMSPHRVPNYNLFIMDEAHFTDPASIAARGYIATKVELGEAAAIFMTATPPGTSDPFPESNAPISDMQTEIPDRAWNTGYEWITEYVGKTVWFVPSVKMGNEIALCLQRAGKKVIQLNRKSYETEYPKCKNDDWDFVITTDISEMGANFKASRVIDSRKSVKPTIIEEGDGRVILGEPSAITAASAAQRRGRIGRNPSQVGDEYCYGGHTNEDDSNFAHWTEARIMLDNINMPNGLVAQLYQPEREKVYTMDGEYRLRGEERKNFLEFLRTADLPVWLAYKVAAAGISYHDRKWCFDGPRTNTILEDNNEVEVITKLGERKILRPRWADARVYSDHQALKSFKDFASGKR

Prothrombin = Prothrombin (Homo sapiens, UniProt P00734); experiment: Inhibition of thrombin (unknown origin) at 25 uM using Boc-Val-Pro-Arg-AMC as substrate preincubated for 15 mins followed by substrate addition and measured for 15 mins by fluorimetric assay; conditions: 0.25 h
Trypsin = Trypsin (Homo sapiens, UniProt P07477+P07478+P35030); experiment: Inhibition of trypsin (unknown origin) at 50 uM using Boc-Val-Pro-Arg-AMC as substrate preincubated for 15 mins followed by substrate addition and measured for 15 mins by fluorimetric assay relative to control; format: protein assay; conditions: 0.25 h, 50 µM
[3] = biological target: Genome polyprotein (dengue virus type 2) (UniProt P29990); experiment: Inhibition of Dengue virus serotype 2 NS2B-NS3 protease transfected in human HeLa cells at 12.5 uM measured after 24 hrs by Renilla-luciferase reporter gene assay relative to control; format: cell-based
[4] = Drug metabolism in pH 9 Tris-HCl buffer assessed as racemization incubated for 96 hrs at 37 degC RP-HPLC analysis; format: physicochemical; conditions: pH 9, 96 h
[5] = Cytotoxicity against human HeLa cells assessed as reduction in cell viability measured after 24 hrs by celltiter-blue assay; format: cell-based
[6] = biological target: Genome polyprotein (dengue virus type 2) (UniProt P29990); experiment: Inhibition of Dengue virus serotype 2 NS2B-NS3 protease expressed in Escherichia coli BL21 lambda (DE3) cells at 50 uM using Abz-Nle-Lys-Arg-Arg-Ser-3-(NO2)Tyr as substrate preincubated for 15 mins followed by substrate addition and measured for 15 mins by FRET assay relative to control
Huh-7 = experiment: Cytotoxicity against human HuH7 cells assessed as reduction in cell viability at 12 uM measured after 48 hrs by celltiter-blue assay; format: cell-based; conditions: huh-7, 48 h
[7] = biological target: Genome polyprotein (dengue virus type 2) (UniProt P29990); experiment: Competitive inhibition of Dengue virus serotype 2 NS2B-NS3 protease expressed in Escherichia coli BL21 lambda (DE3) cells using varying levels of Abz-Nle-Lys-Arg-Arg-Ser-3-(NO2)Tyr as substrate by Cheng-Prusoff plot analysis
[8] = Drug metabolism in pH 7.4 phosphate buffered saline assessed as racemization incubated for 96 hrs at 37 degC RP-HPLC analysis; format: physicochemical; conditions: buffer, pH 7.4, 96 h
dengue virus type 2 [9] = experiment: Antiviral activity against DENV2 infected in human HuH7 cells assessed as reduction in virus titer measured after 48 hrs; format: functional, organism-based; conditions: Huh-7, 48 h
[10] = Permeability of the compound assessed as drug level in donor plate at 200 uM measured after 5 hrs at pH 7.4 by PAMPA; format: ADME; conditions: pH 7.4, 5 h
[11] = Drug metabolism in pH 7 DENV2proHeLa medium assessed as racemization incubated for 96 hrs at 37 degC RP-HPLC analysis; format: physicochemical; conditions: pH 7, 96 h
[12] = Permeability of the compound assessed as mass retention at 200 uM measured after 5 hrs at pH 7.4 by PAMPA; format: ADME; conditions: pH 7.4, 5 h
dengue virus type 2 [13] = experiment: Antiviral activity against DENV2 infected in human HuH7 cells assessed as reduction in virus titer at 10 uM measured after 48 hrs relative to control; format: functional; conditions: Huh-7, 48 h
Genome polyprotein [14] = biological target: T1, Genome polyprotein; experiment: Inhibition of Dengue virus serotype 2 NS2B-NS3 protease expressed in Escherichia coli BL21 lambda (DE3) cells using Abz-Nle-Lys-Arg-Arg-Ser-3-(NO2)Tyr as substrate preincubated for 15 mins followed by substrate addition and measured for 15 mins by FRET assay
[15] = Drug metabolism in pH13 sodium hydroxide solution assessed as racemization incubated for 96 hrs at room temperature RP-HPLC analysis; format: physicochemical; conditions: pH 13, 96 h
[16] = biological target: Genome polyprotein (West Nile virus) (UniProt P06935); experiment: Competitive inhibition of West Nile virus NS2B-NS3 protease expressed in Escherichia coli BL21 lambda (DE3) cells using varying levels of Abz-Gly-Leu-Lys-Arg-Gly-Gly-3-(NO2)Tyr as substrate by Cheng-Prusoff plot analysis
Sequence of Genome polyprotein (West Nile virus) (P06935 whole entry): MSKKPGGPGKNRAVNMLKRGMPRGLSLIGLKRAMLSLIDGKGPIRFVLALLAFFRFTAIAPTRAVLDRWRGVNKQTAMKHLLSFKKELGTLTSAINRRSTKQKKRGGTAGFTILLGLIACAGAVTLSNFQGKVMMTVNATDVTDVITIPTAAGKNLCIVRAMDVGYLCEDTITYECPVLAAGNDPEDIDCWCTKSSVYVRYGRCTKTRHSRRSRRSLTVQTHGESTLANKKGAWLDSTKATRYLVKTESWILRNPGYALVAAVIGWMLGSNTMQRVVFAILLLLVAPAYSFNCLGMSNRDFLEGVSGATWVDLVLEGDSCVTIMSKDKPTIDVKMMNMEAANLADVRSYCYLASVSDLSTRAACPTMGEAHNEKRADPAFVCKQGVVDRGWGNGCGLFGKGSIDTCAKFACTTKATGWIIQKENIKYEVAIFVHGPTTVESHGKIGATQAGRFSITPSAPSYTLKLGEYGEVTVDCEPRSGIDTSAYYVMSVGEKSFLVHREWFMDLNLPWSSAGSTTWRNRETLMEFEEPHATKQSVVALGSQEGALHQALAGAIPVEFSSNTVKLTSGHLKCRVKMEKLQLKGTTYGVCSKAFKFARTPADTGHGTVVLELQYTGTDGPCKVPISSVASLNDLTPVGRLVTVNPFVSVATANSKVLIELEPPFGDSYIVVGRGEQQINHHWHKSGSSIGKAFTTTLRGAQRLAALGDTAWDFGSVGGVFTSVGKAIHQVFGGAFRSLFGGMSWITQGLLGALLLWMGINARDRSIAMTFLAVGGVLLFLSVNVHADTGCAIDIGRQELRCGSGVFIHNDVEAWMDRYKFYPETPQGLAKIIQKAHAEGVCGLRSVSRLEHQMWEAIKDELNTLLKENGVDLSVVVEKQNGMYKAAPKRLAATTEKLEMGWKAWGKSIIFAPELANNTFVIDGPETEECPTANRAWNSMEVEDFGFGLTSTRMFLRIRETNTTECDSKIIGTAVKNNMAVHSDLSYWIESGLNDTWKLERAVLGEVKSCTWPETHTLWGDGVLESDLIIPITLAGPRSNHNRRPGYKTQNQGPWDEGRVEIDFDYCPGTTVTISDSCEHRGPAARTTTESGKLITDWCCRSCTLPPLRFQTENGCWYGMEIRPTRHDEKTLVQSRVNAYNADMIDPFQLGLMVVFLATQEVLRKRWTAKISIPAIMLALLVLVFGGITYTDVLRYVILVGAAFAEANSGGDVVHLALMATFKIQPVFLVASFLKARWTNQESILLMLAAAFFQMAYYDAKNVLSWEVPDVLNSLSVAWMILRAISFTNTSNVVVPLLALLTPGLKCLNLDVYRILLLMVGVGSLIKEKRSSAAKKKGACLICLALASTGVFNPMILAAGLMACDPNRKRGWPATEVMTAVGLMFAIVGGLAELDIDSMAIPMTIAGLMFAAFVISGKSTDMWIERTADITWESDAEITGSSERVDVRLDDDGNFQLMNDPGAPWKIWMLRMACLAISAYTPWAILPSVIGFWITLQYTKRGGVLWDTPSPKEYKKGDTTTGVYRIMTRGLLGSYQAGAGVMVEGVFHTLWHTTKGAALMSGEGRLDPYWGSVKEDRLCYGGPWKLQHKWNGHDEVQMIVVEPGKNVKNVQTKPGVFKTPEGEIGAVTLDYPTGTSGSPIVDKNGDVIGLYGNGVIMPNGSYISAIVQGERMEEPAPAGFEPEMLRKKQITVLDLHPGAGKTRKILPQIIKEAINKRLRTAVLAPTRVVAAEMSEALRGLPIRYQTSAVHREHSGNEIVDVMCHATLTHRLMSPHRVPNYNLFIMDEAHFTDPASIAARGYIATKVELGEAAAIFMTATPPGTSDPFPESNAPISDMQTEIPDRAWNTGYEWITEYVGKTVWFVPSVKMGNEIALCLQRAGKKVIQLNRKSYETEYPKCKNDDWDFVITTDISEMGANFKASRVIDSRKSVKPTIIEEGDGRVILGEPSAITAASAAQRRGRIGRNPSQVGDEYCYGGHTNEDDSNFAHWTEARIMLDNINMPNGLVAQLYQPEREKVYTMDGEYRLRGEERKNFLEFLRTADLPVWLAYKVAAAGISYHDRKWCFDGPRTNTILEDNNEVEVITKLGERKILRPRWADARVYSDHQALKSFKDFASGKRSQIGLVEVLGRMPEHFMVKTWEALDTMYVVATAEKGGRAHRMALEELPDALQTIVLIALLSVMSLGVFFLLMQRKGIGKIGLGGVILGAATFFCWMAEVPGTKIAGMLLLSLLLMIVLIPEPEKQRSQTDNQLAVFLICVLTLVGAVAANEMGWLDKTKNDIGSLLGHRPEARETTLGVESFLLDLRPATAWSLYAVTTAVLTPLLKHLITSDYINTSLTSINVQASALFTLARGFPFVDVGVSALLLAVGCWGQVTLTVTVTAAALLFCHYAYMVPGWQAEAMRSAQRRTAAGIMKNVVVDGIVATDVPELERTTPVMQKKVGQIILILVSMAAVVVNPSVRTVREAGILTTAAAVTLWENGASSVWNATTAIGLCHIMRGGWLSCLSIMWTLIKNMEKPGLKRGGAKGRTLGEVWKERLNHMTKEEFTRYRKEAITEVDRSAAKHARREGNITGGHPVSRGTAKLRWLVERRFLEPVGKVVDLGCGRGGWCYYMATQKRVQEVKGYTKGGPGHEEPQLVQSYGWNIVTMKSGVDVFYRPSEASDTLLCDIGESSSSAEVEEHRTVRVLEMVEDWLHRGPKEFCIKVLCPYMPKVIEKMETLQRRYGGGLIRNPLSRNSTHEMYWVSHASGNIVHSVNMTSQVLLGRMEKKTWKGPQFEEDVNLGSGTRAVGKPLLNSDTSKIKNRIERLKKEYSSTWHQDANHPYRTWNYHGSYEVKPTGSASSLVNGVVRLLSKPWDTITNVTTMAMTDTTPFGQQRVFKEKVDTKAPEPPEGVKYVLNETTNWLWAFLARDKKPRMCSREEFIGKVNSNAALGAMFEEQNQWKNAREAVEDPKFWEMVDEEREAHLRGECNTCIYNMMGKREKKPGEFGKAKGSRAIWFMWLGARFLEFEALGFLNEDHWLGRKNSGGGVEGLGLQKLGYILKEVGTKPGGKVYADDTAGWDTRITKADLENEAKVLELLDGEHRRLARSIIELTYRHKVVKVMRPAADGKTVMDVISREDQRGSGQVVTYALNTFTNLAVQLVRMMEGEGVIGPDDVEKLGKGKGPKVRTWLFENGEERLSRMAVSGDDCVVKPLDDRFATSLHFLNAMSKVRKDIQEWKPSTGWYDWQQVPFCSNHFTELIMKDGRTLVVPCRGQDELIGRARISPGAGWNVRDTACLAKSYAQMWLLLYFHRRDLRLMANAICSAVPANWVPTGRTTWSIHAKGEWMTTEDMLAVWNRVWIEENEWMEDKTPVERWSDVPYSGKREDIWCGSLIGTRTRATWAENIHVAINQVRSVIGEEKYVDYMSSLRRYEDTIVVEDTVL

[17] = Permeability of the compound assessed as drug level in acceptor plate at 200 uM measured after 5 hrs at pH 7.4 by PAMPA; format: ADME; conditions: pH 7.4, 5 h
[18] = biological target: Genome polyprotein (West Nile virus) (UniProt P06935); experiment: Inhibition of West Nile virus NS2B-NS3 protease expressed in Escherichia coli BL21 lambda (DE3) cells at 50 uM using Abz-Gly-Leu-Lys-Arg-Gly-Gly-3-(NO2)Tyr as substrate preincubated for 15 mins followed by substrate addition measured for 15 mins by fluorimetric analysis relative to control
[19] = Drug metabolism in pH13 sodium hydroxide solution assessed as racemization incubated for 96 hrs at 37 degC RP-HPLC analysis; format: physicochemical; conditions: pH 13, 96 h
[20] = Permeability of the compound at 200 uM measured after 5 hrs at pH 7.4 by PAMPA; format: ADME; conditions: read-out: permeability

With `CCCCCC(=O)N[C@H](C(=O)NCc1ccc(NC(=N)N)cc1)c1ccc(OCc2ccccc2)cc1.O=C(O)C(F)(F)F` the EC50 (Genome polyprotein [1]) was 0.49 µM, the IC50 (Genome polyprotein [2]) was 13 µM and the Ki (Genome polyprotein [2]) was 12 to 12.4 µM. For the same compound, the “inhibition (INH)” value (Prothrombin) was “Not Active”, the “inhibition (INH)” value (Trypsin) was “Not Active” and the inhibition [3] was 79.8%. The Drug metabolism [4] was “Metabolite_Notdetected”, the CC50 at 24 h [5] was > 50 µM and the inhibition [6] was 95.1%. For the same compound, the Activity (Huh-7) was “Non-Toxic”, the inhibition [7] was “Active” and the Drug metabolism [8] was “Metabolite_Notdetected”. For the same compound, the EC50 (dengue virus type 2 [9]) was 0.89 µM, the Drug uptake [10] was 171 µM and the Drug metabolism [11] was “Metabolite_Notdetected”. It also gave a R% [12] of 12%, an inhibition at 10 µM (dengue virus type 2 [13]) of 84.5% and an IC50 (Genome polyprotein [14]) of 11 µM. For the same compound, the Ki (Genome polyprotein [14]) was 9.8 µM, the Drug metabolism [15] was “Metabolite_Detected” and the inhibition [16] was “Active”. For the same compound, the Drug uptake [17] was 7.5 µM, the inhibition [18] was 102% and the Drug metabolism [19] was “Metabolite_Detected”. The Papp at 5 h, 200 µM [20] was 1.6 ×10⁻⁶ cm/s.
